In patent US11485701B2, “Insect repellent compounds and compositions, and methods thereof” (Iowa State University Research Foundation, Inc., priority 2016, dated 2022):
“Also recorded” adds a separate entry of the source. Like-named read-outs stand apart in the source and are kept apart here.

Experiments:
[1] = tested on: Northern house mosquitoes (Culex pipiens); test: Long-term spatial repellency, static air repellency chamber, filter papers air-dried 5 hours; assay type: in vivo; settings: Culex pipiens, 1 mL of 0.5% solution in acetone, air-dried 5 hours
Summary of the method: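 Adult female Culex pipiens, 5–7 days post-emergence, held at 27 °C, 80% RH and 16:8 light:dark, about 20 per replicate in a 9 × 60 cm glass static-air chamber. Filter paper treated with 0.5% compound in acetone and air-dried 5 h is placed at one end; acetone-only papers are the control. Percentage spatial repellency is scored from mosquito distribution at 15–150 min, 4 replicates.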

[2] = tested on: Aedes aegypti; test: Human skin testing, biting deterrence (BioGents test cage, treated nylon sleeve); assay type: in vivo
Experimental: Female mosquitoes (Aedes aegypti) were reared according to the standard protocol at a temperature of 27.5±1° C., a relative humidity of 65-80% and a 12:12 hour photo period. The light period (450 Lux) was set from 7:00 to 19:00. After hatching from the eggs, larvae were kept in a water basin (30×30×10 cm) filled with a 1:1 mixture of tap- and deionized water with low oxygen content and fed with fish food flakes (Tetra Min®). Pupae were transferred to a cage (40×30×20 cm) provided with sugar solution (10% dextrose). Mosquitoes at an age of 5 to 10 days post-emergence were used for behavioral tests.
BioGents (BG) test cages are an in-house improvement of conventional test cages for the evaluation of mosquito repellents (Obermayr et al., “A Novel Test Cage with an Air Ventilation System as an Alternative to Conventional Cages for the Efficacy Testing of Mosquito Repellents,” J. Med. Entomol. 47:1116-22 (2010) which is hereby incorporated by reference in its entirety). The cages have a volume of 27.000 cm^3 (41×41×16 cm). Four sides of a cage are made of acrylic glass, the floor is made of metal sheet, and the rear side is covered by a gauze sleeve. The floor sheet is equipped with a test window (size: 56 cm^2; 14.8×3.8 cm) for the exposure of the treated skin. In between tests, BG cages are connected to a ventilation system that provides clean, warm, and humid air (26±1° C., 65±5% R.H.) to remove remaining host odours and repellent volatiles from the air inside the cage. In the presented study, the ventilation system was not applied as mosquitoes were only tested once and then discarded. Each treated sleeve was tested on a fresh batch of mosquitoes. Each cage was filled with populations of 30 mosquitoes, lured out of their rearing cages by a natural stimulus (human hand) to ensure that only host-seeking females are used for the repellent tests
All formulations have been stored at 4° C. Prior to testing, stock formulations were diluted v/v to final concentrations of 10% in 200 proof ethanol. […] For each test formulations, 2 pieces were prepared—one was treated, while the other one remained untreated and was worn between skin and treated nylon sleeve.
From each test formulation 5 ml were filled into 25 ml glass flasks; immediately afterwards stockings were folded into the flasks and pushed into the liquid formulation with a clean spatula. Flasks were sealed and incubated in the fridge overnight. On the consecutive day, one of the treated nylon pieces was removed from the flasks and left to dry on a clean paper towel for at least 10 minutes or until the ethanol had evaporated. The drying process was conducted at 27° C. and 65% to 80%. One untreated nylon sleeve was attached to the forearm followed by the treated sleeve.
Prior to a repellent efficacy test, the biting activity of the test mosquitoes was verified with the other, untreated forearm of a volunteer (wearing an untreated nylon sleeve). To keep biting pressure on the untreated skin low, a modified spacer covered with fine mosquito netting was used in control tests. Mosquitoes were still attracted to the skin odours and landed on the net, however they were not able to reach the skin and pierce it. A minimum of 10 landings had to be observed in 30 seconds during tests with Ae. aegypti. In case of lowered biting activities, 5 to 10 new mosquitoes were added to the cage or 30 new mosquitoes are used. […] The number of landing and biting mosquitoes was recorded. […]

[3] = nylon treated with 10% in ethanol, max 2 min exposure, one volunteer

Q: How did the pest or weed control at 0.5 % ([1]; 0.25 h, 15 min, read-out: Long-term Percentage repellency 15 min) turn out when `CC(C)=CCCC(C)CC(=O)OCC(C)O` (centres unmarked) [Compound 2144, 2-hydroxypropyl citronellate] was run?
A: Its pest or weed control at 0.5 % is 12.5%.

Q: And the pest or weed control at 0.5 % ([1]; 1.5 h, 90 min, read-out: Long-term Percentage repellency 90 min)?
A: Its pest or weed control at 0.5 % is 20%.

Q: And the pest or weed control at 0.5 % ([1]; 2.5 h, 150 min, read-out: Long-term Percentage repellency 150 min)?
A: The pest or weed control at 0.5 % was 35%.

Q: And the Observations ([2]; nylon treated with 10%)?
A: Its Observations is “Repellent effects were clearly noticeable; also recorded: Visible repelient effects”.

Q: What about the Bites ([2]; nylon treated with 10% in ethanol, bites per 120 sec) of the same molecule?
A: Its Bites is 0/120 sec.

Q: What about the “Contacts: Landing (mosquitoes sits for >3 sec)” value [2, 3] of the same molecule?
A: The value was 2.

Q: And the “Contacts: Short touch-down” value [2, 3]?
A: The value was 18.

Q: And the bite reduction ([2]; nylon treated with 10%, versus untreated nylon)?
A: The bite reduction was “(100% bite reduction)”.
